Data as given in PubChem BioAssay AID256 (DTP/NCI, 2004).
Values joined by “and” are separate entries in the source; they are usually repeats but may differ in a detail not shown here. Identical values can stand only once. Toxic doses and inconclusive results are not listed.

Test system: CD2F1 mice, L1210 leukemia ip, survival T/C
Assay: NCI In Vivo Anticancer Drug Screen. Data for tumor model L1210 Leukemia (intraperitoneal) in CD2F1 (CDF1) mice
Conditions: higher = longer survival
Procedure, shortened: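 Mice carrying a transplanted tumor received test compound or vehicle alone. The value is the measurement in the treated group divided by that in the vehicle-treated control group.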

[1] = endpoint: mean survival time, dose: 100.0 mg/kg/injection, schedule: Q04DX003 (ip), vehicle: saline with Tween-80
[2] = endpoint: mean survival time, dose: 200.0 mg/kg/injection, schedule: Q04DX003 (ip), vehicle: saline with Tween-80
[3] = endpoint: mean survival time, dose: 400.0 mg/kg/injection, schedule: Q04DX003 (ip), vehicle: saline with Tween-80
[4] = endpoint: mean survival time, dose: 12.5 mg/kg/injection, schedule: Q01DX009 (ip), vehicle: saline with Tween-80

Structure (SMILES): COc1ccc(NC(=O)Oc2ccc(NC(C)=O)cc2)c(Cl)c1
- T/C (endpoint: mean survival time, dose: 50.0 mg/kg/injection, schedule: Q01DX009 (ip), vehicle: Klucel (hydroxypropylcellulose) (HPC)): 100 % of control
- T/C (endpoint: mean survival time, dose: 100.0 mg/kg/injection, schedule: Q01DX009 (ip), vehicle: Klucel (hydroxypropylcellulose) (HPC)): 100 % of control
- T/C (endpoint: mean survival time, dose: 200.0 mg/kg/injection, schedule: Q01DX009 (ip), vehicle: Klucel (hydroxypropylcellulose) (HPC)): 107 % of control

Structure (SMILES): CC1(C)C2CCC1(C(=O)O)C(=O)C2 (stereo not given)
- T/C [1]: 92 % of control
- T/C [2]: 92 % of control
- T/C [3]: 87 % of control

Structure (SMILES): O=CC(CO)OC(C=O)n1cnc2c(=O)[nH]c(=O)[nH]c21 (stereo not given)
- T/C (endpoint: mean survival time, dose: 12.5 mg/kg/injection, schedule: Q01DX005 (ip), vehicle: water): 101 % of control
- T/C (endpoint: mean survival time, dose: 25.0 mg/kg/injection, schedule: Q01DX005 (ip), vehicle: water): 106 % of control
- T/C (endpoint: mean survival time, dose: 50.0 mg/kg/injection, schedule: Q01DX005 (ip), vehicle: water): 106 % of control
- T/C (endpoint: mean survival time, dose: 100.0 mg/kg/injection, schedule: Q01DX005 (ip), vehicle: water): 115 % of control

Structure (SMILES): CS(=O)(=O)OCCC(=O)N1CCN(C(=O)CCOS(C)(=O)=O)CC1
- T/C (endpoint: mean survival time, dose: 4.0 mg/kg/injection, schedule: Q03HX024 (oral), vehicle: saline): 97 % of control
- T/C (endpoint: mean survival time, dose: 8.0 mg/kg/injection, schedule: Q03HX008 (ip), vehicle: saline): 120 % of control
- T/C (endpoint: mean survival time, dose: 8.0 mg/kg/injection, schedule: Q03HX008 (oral), vehicle: saline): 93 % of control
- T/C (endpoint: mean survival time, dose: 8.0 mg/kg/injection, schedule: Q03HX016 (oral), vehicle: saline): 94 % of control
- T/C (endpoint: mean survival time, dose: 8.0 mg/kg/injection, schedule: Q03HX024 (oral), vehicle: saline): 100 % of control
- T/C (endpoint: mean survival time, dose: 16.0 mg/kg/injection, schedule: Q01DX009 (oral), vehicle: saline): 101 % of control
- T/C (endpoint: mean survival time, dose: 16.0 mg/kg/injection, schedule: Q03HX008 (oral), vehicle: saline): 96 % of control
- T/C (endpoint: mean survival time, dose: 16.0 mg/kg/injection, schedule: Q03HX016 (ip), vehicle: saline): 169 % of control
- T/C (endpoint: mean survival time, dose: 16.0 mg/kg/injection, schedule: Q03HX016 (oral), vehicle: saline): 100 % of control
- T/C (endpoint: mean survival time, dose: 16.0 mg/kg/injection, schedule: Q03HX024 (ip), vehicle: saline): 200 % of control
- T/C (endpoint: mean survival time, dose: 16.0 mg/kg/injection, schedule: Q03HX024 (oral), vehicle: saline): 109 % of control
- T/C (endpoint: mean survival time, dose: 32.0 mg/kg/injection, schedule: Q01DX009 (ip), vehicle: saline): 165 % of control
- T/C (endpoint: mean survival time, dose: 32.0 mg/kg/injection, schedule: Q01DX009 (oral), vehicle: saline): 103 % of control
- T/C (endpoint: mean survival time, dose: 32.0 mg/kg/injection, schedule: Q03HX008 (ip), vehicle: saline): 182 % of control
- T/C (endpoint: mean survival time, dose: 32.0 mg/kg/injection, schedule: Q03HX008 (oral), vehicle: saline): 102 % of control
- T/C (endpoint: mean survival time, dose: 32.0 mg/kg/injection, schedule: Q03HX016 (ip), vehicle: saline): 207 % of control
- T/C (endpoint: mean survival time, dose: 32.0 mg/kg/injection, schedule: Q03HX016 (oral), vehicle: saline): 95 % of control
- T/C (endpoint: mean survival time, dose: 32.0 mg/kg/injection, schedule: Q03HX024 (ip), vehicle: saline): 168 % of control
- T/C (endpoint: mean survival time, dose: 32.0 mg/kg/injection, schedule: Q03HX024 (oral), vehicle: saline): 114 % of control
- T/C (endpoint: mean survival time, dose: 32.0 mg/kg/injection, schedule: Q04DX003 (oral), vehicle: saline): 100 % of control
- T/C (endpoint: mean survival time, dose: 64.0 mg/kg/injection, schedule: Q01DX001 (oral), vehicle: saline): 98 % of control
- T/C (endpoint: mean survival time, dose: 64.0 mg/kg/injection, schedule: Q01DX009 (ip), vehicle: saline): 208 % of control
- T/C (endpoint: mean survival time, dose: 64.0 mg/kg/injection, schedule: Q01DX009 (oral), vehicle: saline): 105 % of control
- T/C (endpoint: mean survival time, dose: 64.0 mg/kg/injection, schedule: Q03HX008 (oral), vehicle: saline): 106 % of control
- T/C (endpoint: mean survival time, dose: 64.0 mg/kg/injection, schedule: Q03HX016 (ip), vehicle: saline): 103 % of control
- T/C (endpoint: mean survival time, dose: 64.0 mg/kg/injection, schedule: Q03HX016 (oral), vehicle: saline): 97 % of control
- T/C (endpoint: mean survival time, dose: 64.0 mg/kg/injection, schedule: Q04DX003 (oral), vehicle: saline): 105 % of control
- T/C (endpoint: mean survival time, dose: 64.0 mg/kg/injection, schedule: Q08DX002 (oral), vehicle: saline): 92 % of control
- T/C (endpoint: mean survival time, dose: 128.0 mg/kg/injection, schedule: Q01DX001 (oral), vehicle: saline): 98 % of control
- T/C (endpoint: mean survival time, dose: 128.0 mg/kg/injection, schedule: Q01DX009 (ip), vehicle: saline): 124 % of control
- T/C (endpoint: mean survival time, dose: 128.0 mg/kg/injection, schedule: Q01DX009 (oral), vehicle: saline): 110 % of control
- T/C (endpoint: mean survival time, dose: 128.0 mg/kg/injection, schedule: Q04DX003 (ip), vehicle: saline): 193 % of control
- T/C (endpoint: mean survival time, dose: 128.0 mg/kg/injection, schedule: Q04DX003 (oral), vehicle: saline): 95 % of control
- T/C (endpoint: mean survival time, dose: 128.0 mg/kg/injection, schedule: Q08DX002 (ip), vehicle: saline): 194 % of control
- T/C (endpoint: mean survival time, dose: 128.0 mg/kg/injection, schedule: Q08DX002 (oral), vehicle: saline): 90 % of control
- T/C (endpoint: mean survival time, dose: 256.0 mg/kg/injection, schedule: Q01DX001 (ip), vehicle: saline): 166 % of control
- T/C (endpoint: mean survival time, dose: 256.0 mg/kg/injection, schedule: Q01DX001 (oral), vehicle: saline): 94 % of control
- T/C (endpoint: mean survival time, dose: 256.0 mg/kg/injection, schedule: Q01DX009 (oral), vehicle: saline): 110 % of control
- T/C (endpoint: mean survival time, dose: 256.0 mg/kg/injection, schedule: Q04DX003 (ip), vehicle: saline): 181 % of control
- T/C (endpoint: mean survival time, dose: 256.0 mg/kg/injection, schedule: Q04DX003 (oral), vehicle: saline): 100 % of control
- T/C (endpoint: mean survival time, dose: 256.0 mg/kg/injection, schedule: Q08DX002 (ip), vehicle: saline): 228 % of control
- T/C (endpoint: mean survival time, dose: 256.0 mg/kg/injection, schedule: Q08DX002 (oral), vehicle: saline): 96 % of control
- T/C (endpoint: mean survival time, dose: 512.0 mg/kg/injection, schedule: Q01DX001 (ip), vehicle: saline): 89 % of control
- T/C (endpoint: mean survival time, dose: 512.0 mg/kg/injection, schedule: Q01DX001 (oral), vehicle: saline): 96 % of control
- T/C (endpoint: mean survival time, dose: 512.0 mg/kg/injection, schedule: Q04DX003 (ip), vehicle: saline): 103 % of control
- T/C (endpoint: mean survival time, dose: 512.0 mg/kg/injection, schedule: Q08DX002 (oral), vehicle: saline): 94 % of control

Structure (SMILES): CC(C)(C)N1CC1CNC(=O)C(=O)NCC1CN1C(C)(C)C (stereo not given)
- T/C (endpoint: mean survival time, dose: 0.78 mg/kg/injection, schedule: Q01DX009 (ip), vehicle: saline with Tween-80): 100 % of control and 102 % of control
- T/C (endpoint: mean survival time, dose: 1.56 mg/kg/injection, schedule: Q01DX009 (ip), vehicle: saline with Tween-80): 103 % of control and 105 % of control
- T/C (endpoint: mean survival time, dose: 3.12 mg/kg/injection, schedule: Q01DX009 (ip), vehicle: saline with Tween-80): 114 % of control and 108 % of control
- T/C [4]: 171 % of control and 201 % of control
- T/C (endpoint: mean survival time, dose: 12.5 mg/kg/injection, schedule: Q01DX009 (oral), vehicle: saline with Tween-80): 150 % of control
- T/C (endpoint: median survival time, dose: 3.13 mg/kg/injection, schedule: Q01DX009 (ip), vehicle: saline with Tween-80): 117 % of control
- T/C (endpoint: median survival time, dose: 6.25 mg/kg/injection, schedule: Q01DX009 (ip), vehicle: saline with Tween-80): 158 % of control and 171 % of control
- T/C (endpoint: median survival time, dose: 12.5 mg/kg/injection, schedule: Q01DX009 (ip), vehicle: saline with Tween-80): 273 % of control and 275 % of control
- T/C (endpoint: median survival time, dose: 25.0 mg/kg/injection, schedule: Q01DX009 (ip), vehicle: saline with Tween-80): 117 % of control and 98 % of control

Structure (SMILES): CCOC(OCC)c1ccccc1 (tested in a mixture with another compound)
- T/C [1]: 97 % of control
- T/C [2]: 97 % of control
- T/C [3]: 97 % of control

Structure (SMILES): O=C1c2ccccc2C(=O)C1c1cc2ccccc2cn1
- T/C (endpoint: mean survival time, dose: 50.0 mg/kg/injection, schedule: Q04DX002 (ip), vehicle: saline with Tween-80): 91 % of control
- T/C (endpoint: mean survival time, dose: 100.0 mg/kg/injection, schedule: Q01DX001 (ip), vehicle: saline with Tween-80): 87 % of control
- T/C (endpoint: mean survival time, dose: 100.0 mg/kg/injection, schedule: Q04DX002 (ip), vehicle: saline with Tween-80): 95 % of control
- T/C (endpoint: mean survival time, dose: 200.0 mg/kg/injection, schedule: Q01DX001 (ip), vehicle: saline with Tween-80): 91 % of control
- T/C (endpoint: mean survival time, dose: 200.0 mg/kg/injection, schedule: Q04DX002 (ip), vehicle: saline with Tween-80): 91 % of control

Structure (SMILES): O=c1cc[nH]c(=O)n1C1OC(CO)C(O)C1O (stereo not given)
- T/C (endpoint: mean survival time, dose: 100.0 mg/kg/injection, schedule: Q01DX005 (ip), vehicle: saline): 104 % of control
- T/C (endpoint: mean survival time, dose: 200.0 mg/kg/injection, schedule: Q01DX005 (ip), vehicle: saline): 113 % of control

Structure (SMILES): CC(C)CCNc1ncnc2[nH]ncc12
- T/C (endpoint: mean survival time, dose: 12.5 mg/kg/injection, schedule: Q04DX003 (ip), vehicle: Klucel (hydroxypropylcellulose) (HPC)): 106 % of control
- T/C (endpoint: mean survival time, dose: 25.0 mg/kg/injection, schedule: Q04DX003 (ip), vehicle: Klucel (hydroxypropylcellulose) (HPC)): 106 % of control
- T/C (endpoint: mean survival time, dose: 50.0 mg/kg/injection, schedule: Q04DX003 (ip), vehicle: Klucel (hydroxypropylcellulose) (HPC)): 100 % of control

Structure (SMILES): O=C(CC(=Nc1ccccc1)c1ccccc1)c1ccccc1.O=C(CC(=Nc1ccccc1)c1ccccc1)c1ccccc1.[Cu]
- T/C [4]: 98 % of control
- T/C (endpoint: mean survival time, dose: 25.0 mg/kg/injection, schedule: Q01DX009 (ip), vehicle: saline with Tween-80): 93 % of control
